{"source": "patent US10828241B2", "about": "“Skin lightening compositions and methods” (SYTHEON LIMITED, priority 2018, dated 2020)", "system": "skin pigmentation", "assay": "Clinical study: facial pigment intensity from digital photography", "assay_type": "in vivo, human", "conditions": "lotion with 1.00% acetyl zingerone (Formulation 1A) applied to full face twice daily, group of 17", "data": [{"smiles": "COc1cc(CC(C(C)=O)C(C)=O)ccc1O", "note": "[Compd. 1, Acetyl Zingerone]", "values": [{"measurement": "Pigment Intensity (% Change), Average", "setting": "4 weeks", "value": "−25.580", "unit": "%"}, {"measurement": "Pigment Intensity (% Change), Average", "setting": "8 weeks", "value": "−25.601", "unit": "%"}]}]}
